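These data come from cells grown in 96-well plates and exposed to compound for 48 hours at five concentrations. GI50 = concentration required for 50% inhibition of growth.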 The source made the active and inactive calls. Rule as the data show it: active = GI50 up to about 1.1 µM and inactive = higher.
Assays:
Assay in all cases: NCI-60 cell line screen, 48 h
CCRF-CEM = test system: CCRF-CEM
SK-MEL-28 = test system: SK-MEL-28
Hs-578T = test system: Hs-578T
U-251 = test system: U-251
SK-MEL-2 = test system: SK-MEL-2
NCI/ADR-RES = test system: NCI/ADR-RES
SNB-19 = test system: SNB-19
K562 = test system: K562
IGROV-1 = test system: IGROV-1
Malme-3M = test system: Malme-3M
SR = test system: SR
ACHN = test system: ACHN
NCI-H226 = test system: NCI-H226
UO-31 = test system: UO-31
SN12C = test system: SN12C
CAKI-1 = test system: CAKI-1
A549 = test system: A549
HOP-92 = test system: HOP-92
KM12 = test system: KM12
SW-620 = test system: SW-620
COLO 205 = test system: COLO 205
DU-145 = test system: DU-145
SK-OV-3 = test system: SK-OV-3
MDA-N = test system: MDA-N
RPMI-8226 = test system: RPMI-8226
M14 = test system: M14
NCI-H522 = test system: NCI-H522
786-0 = test system: 786-0
HOP-62 = test system: HOP-62
MOLT-4 = test system: MOLT-4
OVCAR-8 = test system: OVCAR-8
HCT-15 = test system: HCT-15
TK-10 = test system: TK-10
HT-29 = test system: HT-29
OVCAR-5 = test system: OVCAR-5
NCI-H23 = test system: NCI-H23
SK-MEL-5 = test system: SK-MEL-5
OVCAR-3 = test system: OVCAR-3
EKVX = test system: EKVX
SF-268 = test system: SF-268
MDA-MB-231 = test system: MDA-MB-231
PC-3 = test system: PC-3
BT-549 = test system: BT-549
LOX IMVI = test system: LOX IMVI
SF-295 = test system: SF-295
OVCAR-4 = test system: OVCAR-4
A498 = test system: A498
SNB-75 = test system: SNB-75
MDA-MB-435 = test system: MDA-MB-435
T47D = test system: T47D
RXF 393 = test system: RXF 393
SF-539 = test system: SF-539
HCT-116 = test system: HCT-116
MCF7 = test system: MCF7
UACC-257 = test system: UACC-257
UACC-62 = test system: UACC-62
HL-60 = test system: HL-60
NCI-H460 = test system: NCI-H460

In the case of `Nc1ccc(-c2nnc(-c3c(Cl)c(Cl)c(Cl)c(Cl)c3-c3nc4cc(C(=O)c5ccccc5)ccc4[nH]3)o2)cc1`, the GI50 (CCRF-CEM) is reported as 14.8 µM (inactive), the GI50 (SK-MEL-28) is reported as 28.5 µM (inactive) and the GI50 (Hs-578T) is reported as 28 µM (inactive). For the same compound, the GI50 (U-251) was 18.1 µM (inactive), the GI50 (SK-MEL-2) was 24.5 µM (inactive) and the GI50 (NCI/ADR-RES) was 16 µM (inactive). For the same compound, the GI50 (SNB-19) was 27.2 µM (inactive), the GI50 (K562) was 8 µM (inactive) and the GI50 (IGROV-1) was 28.5 µM (inactive). For the same compound, the GI50 (Malme-3M) was 22.8 µM (inactive), the GI50 (SR) was 5.16 µM (inactive) and the GI50 (ACHN) was 41.7 µM (inactive). The GI50 (NCI-H226) was 18 µM (inactive), the GI50 (UO-31) was 35.7 µM (inactive) and the GI50 (SN12C) was 16.8 µM (inactive). For the same compound, the GI50 (CAKI-1) was 48.1 µM (inactive), the GI50 (A549) was 28.1 µM (inactive) and the GI50 (HOP-92) was 27.2 µM (inactive). For the same compound, the GI50 (KM12) was 27.9 µM (inactive), the GI50 (SW-620) was 29.5 µM (inactive) and the GI50 (COLO 205) was 18.6 µM (inactive). The GI50 (DU-145) was 24.8 µM (inactive), the GI50 (SK-OV-3) was 26.1 µM (inactive) and the GI50 (MDA-N) was 4.68 µM (inactive). The GI50 (RPMI-8226) was 14.8 µM (inactive), the GI50 (M14) was 16.6 µM (inactive) and the GI50 (NCI-H522) was 13.5 µM (inactive). The GI50 (786-0) was 17.1 µM (inactive), the GI50 (HOP-62) was 21.6 µM (inactive) and the GI50 (MOLT-4) was 15.9 µM (inactive). The GI50 (OVCAR-8) was 43.8 µM (inactive), the GI50 (HCT-15) was 15.7 µM and the GI50 (TK-10) was 27.5 µM (inactive). For the same compound, the GI50 (HT-29) was 20.5 µM (inactive), the GI50 (OVCAR-5) was 37.9 µM (inactive) and the GI50 (NCI-H23) was 33 µM (inactive). The GI50 (SK-MEL-5) was 11.1 µM (inactive), the GI50 (OVCAR-3) was 21 µM (inactive) and the GI50 (EKVX) was 28.6 µM (inactive). For the same compound, the GI50 (SF-268) was 28.5 µM (inactive), the GI50 (MDA-MB-231) was 19.3 µM (inactive) and the GI50 (PC-3) was 16.6 µM (inactive). For the same compound, the GI50 (BT-549) was 24.6 µM (inactive), the GI50 (LOX IMVI) was 34.6 µM (inactive) and the GI50 (SF-295) was 19.5 µM (inactive). For the same compound, the GI50 (OVCAR-4) was 24.5 µM (inactive), the GI50 (A498) was 18.5 µM (inactive) and the GI50 (SNB-75) was 24 µM (inactive). The GI50 (MDA-MB-435) was 4.95 µM (inactive), the GI50 (T47D) was 18.3 µM (inactive) and the GI50 (RXF 393) was 10.9 µM (inactive). For the same compound, the GI50 (SF-539) was 14.2 µM (inactive), the GI50 (HCT-116) was 20.6 µM (inactive) and the GI50 (MCF7) was 16 µM (inactive). The GI50 (UACC-257) was 48.4 µM (inactive).
For `Sc1nnc(SCc2ccccc2Cl)c2nc[nH]c12`, the GI50 (CCRF-CEM) was > 100 µM (inactive), the GI50 (SK-MEL-28) was > 100 µM (inactive) and the GI50 (UACC-62) was > 100 µM (inactive). The GI50 (Hs-578T) was > 100 µM (inactive), the GI50 (U-251) was > 100 µM (inactive) and the GI50 (SK-MEL-2) was > 100 µM (inactive). For the same compound, the GI50 (NCI/ADR-RES) was > 100 µM (inactive), the GI50 (SNB-19) was > 100 µM (inactive) and the GI50 (K562) was > 100 µM (inactive). The GI50 (IGROV-1) was > 100 µM (inactive), the GI50 (Malme-3M) was > 100 µM (inactive) and the GI50 (SR) was > 100 µM (inactive). For the same compound, the GI50 (ACHN) was > 100 µM (inactive), the GI50 (NCI-H226) was > 100 µM (inactive) and the GI50 (UO-31) was > 100 µM (inactive). For the same compound, the GI50 (SN12C) was > 100 µM (inactive), the GI50 (CAKI-1) was > 100 µM (inactive) and the GI50 (A549) was > 100 µM (inactive). For the same compound, the GI50 (HOP-92) was > 100 µM (inactive), the GI50 (KM12) was > 100 µM (inactive) and the GI50 (SW-620) was > 100 µM (inactive). For the same compound, the GI50 (COLO 205) was > 100 µM (inactive), the GI50 (DU-145) was > 100 µM (inactive) and the GI50 (SK-OV-3) was > 100 µM (inactive). The GI50 (MDA-N) was > 100 µM (inactive), the GI50 (RPMI-8226) was > 100 µM (inactive) and the GI50 (M14) was > 100 µM (inactive). The GI50 (NCI-H522) was > 100 µM (inactive), the GI50 (786-0) was > 100 µM (inactive) and the GI50 (HOP-62) was > 100 µM (inactive). For the same compound, the GI50 (MOLT-4) was > 100 µM (inactive), the GI50 (OVCAR-8) was > 100 µM (inactive) and the GI50 (HCT-15) was > 100 µM. The GI50 (TK-10) was > 100 µM (inactive), the GI50 (HT-29) was > 100 µM (inactive) and the GI50 (OVCAR-5) was > 100 µM (inactive). The GI50 (NCI-H23) was > 100 µM (inactive), the GI50 (SK-MEL-5) was > 100 µM (inactive) and the GI50 (OVCAR-3) was > 100 µM (inactive). The GI50 (EKVX) was 74.8 µM (inactive), the GI50 (SF-268) was > 100 µM (inactive) and the GI50 (MDA-MB-231) was > 100 µM (inactive). For the same compound, the GI50 (PC-3) was > 100 µM (inactive), the GI50 (BT-549) was > 100 µM (inactive) and the GI50 (LOX IMVI) was > 100 µM (inactive). For the same compound, the GI50 (SF-295) was > 100 µM (inactive), the GI50 (OVCAR-4) was > 100 µM (inactive) and the GI50 (A498) was > 100 µM (inactive). The GI50 (HL-60) was > 100 µM (inactive), the GI50 (NCI-H460) was > 100 µM (inactive) and the GI50 (SNB-75) was > 100 µM (inactive). The GI50 (MDA-MB-435) was > 100 µM (inactive), the GI50 (T47D) was > 100 µM (inactive) and the GI50 (RXF 393) was > 100 µM (inactive). The GI50 (SF-539) was > 100 µM (inactive), the GI50 (HCT-116) was > 100 µM (inactive) and the GI50 (MCF7) was > 100 µM (inactive). For the same compound, the GI50 (UACC-257) was > 100 µM (inactive).

Reference: ChEMBL document CHEMBL1201862, “PubChem BioAssay data set” (2004)
